Assay results reported in US9890166B2, “Imidazopyrrolidine derivatives and their use in the treatment of disease” (NOVARTIS AG, priority 2013, dated 2018).

Legend:
BRD4 (His-Brd4(44-477)) = BRD4 (His-Brd4(44-477)) (Homo sapiens (Human), UniProt O60885); assay: TR-FRET in-vitro binding assay for BRD4; conditions: single determination or n ≧ 2 independent determinations, read-out: Biochemical IC50 BRD4
Summary of the method: (§1)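 His-tagged BRD2, BRD3 and BRD4 fragments tested by TR-FRET at 8 compound concentrations, with DMSO stocks at 10 mM. Read on EnVision after 35 min incubation at 30° C.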

BRD2 (His-Brd2(60-472)) = BRD2 (His-Brd2(60-472)) (Homo sapiens (Human), UniProt P25440); assay: TR-FRET in-vitro binding assay for BRD2; conditions: single determination or n ≧ 2 independent determinations, read-out: Biochemical IC50 BRD2
Chain of BRD2 (His-Brd2(60-472)) (P25440 60-472): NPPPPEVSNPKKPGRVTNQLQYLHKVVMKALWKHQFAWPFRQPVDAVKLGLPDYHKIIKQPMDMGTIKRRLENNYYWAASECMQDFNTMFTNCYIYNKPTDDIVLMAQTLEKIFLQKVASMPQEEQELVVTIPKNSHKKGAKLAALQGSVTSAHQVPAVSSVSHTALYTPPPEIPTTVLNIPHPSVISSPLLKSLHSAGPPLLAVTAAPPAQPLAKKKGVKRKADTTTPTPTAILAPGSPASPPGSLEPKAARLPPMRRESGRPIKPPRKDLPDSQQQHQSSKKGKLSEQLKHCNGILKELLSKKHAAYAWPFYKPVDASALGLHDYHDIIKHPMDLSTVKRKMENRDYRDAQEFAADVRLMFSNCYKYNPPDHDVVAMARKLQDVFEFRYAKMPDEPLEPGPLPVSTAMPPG
Summary of the method: as §1

BRD3 (His-Brd3(20-477)) = BRD3 (His-Brd3(20-477)) (Homo sapiens (Human), UniProt Q15059); assay: TR-FRET in-vitro binding assay for BRD3; conditions: single determination or n ≧ 2 independent determinations, read-out: Biochemical IC50 BRD3
Chain of BRD3 (His-Brd3(20-477)) (Q15059 20-477): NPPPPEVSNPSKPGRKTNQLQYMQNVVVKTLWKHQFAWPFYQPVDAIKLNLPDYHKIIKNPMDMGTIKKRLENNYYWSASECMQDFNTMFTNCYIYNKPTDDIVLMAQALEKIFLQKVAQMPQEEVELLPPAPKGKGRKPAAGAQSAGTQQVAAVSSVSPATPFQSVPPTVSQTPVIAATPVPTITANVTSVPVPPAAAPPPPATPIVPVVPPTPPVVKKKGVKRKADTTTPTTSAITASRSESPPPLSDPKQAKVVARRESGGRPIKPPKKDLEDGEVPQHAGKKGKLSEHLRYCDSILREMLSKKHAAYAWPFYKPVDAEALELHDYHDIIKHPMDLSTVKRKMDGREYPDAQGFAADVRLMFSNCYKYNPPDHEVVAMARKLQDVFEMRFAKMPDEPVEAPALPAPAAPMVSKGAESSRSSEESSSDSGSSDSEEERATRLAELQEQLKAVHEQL
Summary of the method: as §1

[1] = target: CREBBP bromodomain (His-CREBBP(1081-1197)) (Homo sapiens (Human), UniProt Q92793); assay: AlphaScreen in-vitro binding assay for CREBBP; conditions: single determination or n ≧ 2 independent determinations, read-out: Biochemical IC50 CREBBP
Chain of CREBBP bromodomain (His-CREBBP(1081-1197)) (Q92793 1081-1197): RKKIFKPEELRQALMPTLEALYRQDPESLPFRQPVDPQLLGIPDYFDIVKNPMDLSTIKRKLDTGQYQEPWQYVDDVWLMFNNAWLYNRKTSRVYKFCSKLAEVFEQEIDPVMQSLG
Summary of the method: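 Detection used nickel-chelate acceptor plus streptavidin donor AlphaScreen beads, 1 h room temperature. Percent inhibition fitted by non-linear regression to IC50.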

THP-1 cells = assay: Cell growth inhibition assay (CellTiter-Glo), THP-1; conditions: for GI50: Homo sapiens, THP-1, read-out: THP-1 GI50; for THP-1 TGI: THP-1 cells, total growth inhibition, CellTiter-Glo;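 for all read-outs here: viability read as cellular ATP luminescence after 4 days, 3-fold dilution series from 10 µM, DMSO vehicle-treated cells taken as 100%, cell-free medium wells as −100%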
K-562 cells = assay: Cell growth inhibition assay (CellTiter-Glo), K-562; conditions: for GI50: Homo sapiens, K562, read-out: K-562 GI50; for K-562 TGI: K-562 cells, total growth inhibition, CellTiter-Glo;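 for all read-outs here: cellular ATP measured by luminescence after 4 days of exposure, 3-fold dilution series from 10 µM, DMSO vehicle-treated cells define 100%, cell-free medium wells −100%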
MV-4-11 cells = assay: Cell growth inhibition assay (CellTiter-Glo), MV-4-11; conditions: for GI50: Homo sapiens, MV4-11, read-out: MV-4-11 GI50; for MV-4-11 TGI: MV-4-11 cells, total growth inhibition, CellTiter-Glo;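 for all read-outs here: cellular ATP luminescence after 4 days, 3-fold dilution series from 10 µM top dose, vehicle (0.1% DMSO) set to 100%, cell-free medium set to −100%, day 0 corrected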

| Structure (SMILES) | IC50 (BRD4 (His-Brd4(44-477))) | IC50 (BRD2 (His-Brd2(60-472))) | IC50 (BRD3 (His-Brd3(20-477))) | IC50 [1] | GI50 (THP-1 cells) | GI50 (K-562 cells) | GI50 (MV-4-11 cells) | THP-1 TGI (THP-1 cells) | K-562 TGI (K-562 cells) | MV-4-11 TGI (MV-4-11 cells) |
| --- | --- | --- | --- | --- | --- | --- | --- | --- | --- | --- |
| Cc1cc(N2C(=O)c3nc(C)n(C(C)C)c3C2c2ccc(Cl)cc2)cn2c(C(F)F)nnc12 (centres unmarked) [Example 131, 6-(4-chlorophenyl)-5-(3-(difluoromethyl)-8-methyl-[1,2,4]triazolo[4,3-a]pyridin-6-yl)-1-isopropyl-2-methyl-5,6-dihydropyrrolo[3,4-d]imidazol-4(1H)-one] | 28 nM | 49 nM | 31 nM | > 37000 nM | 23.8 nM | 87.5 nM | 16.4 nM | 55 nM | >10000 nM | 29.5 nM |
| COC(=O)N1CCC(c2nc3c(n2C(C)C)C(c2ccc(Cl)cc2)N(c2cc(C)c4nnc(C)n4c2)C3=O)CC1 (centres unmarked) [Example 76, methyl 4-(6-(4-chlorophenyl)-5-(3,8-dimethyl-[1,2,4]triazolo[4,3-a]pyridin-6-yl)-1-isopropyl-4-oxo-1,4,5,6-tetrahydropyrrolo[3,4-d]imidazol-2-yl)piperidine-1-carboxylate] | 54 nM | 97 nM | 64 nM | 2050 nM | 95.7 nM | 314 nM | 23.3 nM | 266 nM | >10000 nM | 38.8 nM |
| COc1ncccc1-c1nc2c(n1C(C)C)[C@@H](c1ccc(Cl)cc1)N(c1cc(C)c3nnc(C(F)F)n3c1)C2=O [Example 151, (R)-6-(4-chlorophenyl)-5-(3-(difluoromethyl)-8-methyl-[1,2,4]triazolo[4,3-a]pyridin-6-yl)-1-isopropyl-2-(2-methoxypyridin-3-yl)-5,6-dihydropyrrolo[3,4-d]imidazol-4(1H)-one] | 11 nM | 14 nM | 14 nM | 13900 nM | 6.85 nM | 24.1 nM | 3.73 nM | 17.45 nM | >10000 nM | 8.015 nM |
| COc1ccc(-c2nc3c(n2C(C)C)C(c2ccc(Cl)cc2)N(c2cc(OC)c4nnn(C)c4c2)C3=O)cn1 (centres unmarked) [Example 113, 6-(4-chlorophenyl)-1-isopropyl-5-(4-methoxy-1-methyl-1H-benzo[d][1,2,3]triazol-6-yl)-2-(6-methoxypyridin-3-yl)-5,6-dihydropyrrolo[3,4-d]imidazol-4(1H)-one] | 200 nM | 100 nM | 102 nM | > 37000 nM | 171 nM | 358 nM | 125 nM | 359.5 nM | >10000 nM | 186 nM |
| COc1ccc(-c2nc3c([nH]2)[C@@H](c2ccc(Cl)cc2)N(c2cc(OC)c4nnc(C)n4c2)C3=O)cn1 [Example 126, (R)-6-(4-chlorophenyl)-5-(8-methoxy-3-methyl-[1,2,4]triazolo[4,3-a]pyridin-6-yl)-2-(6-methoxypyridin-3-yl)-5,6-dihydropyrrolo[3,4-d]imidazol-4(1H)-one] | 104 nM | 385 nM | 283 nM | 25900 nM | 947 nM | 2270 nM | 408 nM | 1700 nM | >10000 nM | 592 nM |
| Cc1cc(N2C(=O)c3nc(C4CC4)n(C(C)C)c3C2c2ccc(Cl)cc2)cn(C)c1=O (centres unmarked) [Example 28, 6-(4-chlorophenyl)-2-cyclopropyl-5-(1,5-dimethyl-6-oxo-1,6-dihydropyridin-3-yl)-1-isopropyl-5,6-dihydropyrrolo[3,4-d]imidazol-4(1H)-one] | 117 nM | 104 nM | 93.7 nM | 3400 nM | 208 nM | 908 nM | 97.9 nM | 384 nM | >10000 nM | 136 nM |
| Cc1cc(N2C(=O)c3nc(C4=CCN(C)CC4)n(C(C)C)c3C2c2ccc(Cl)cc2)cc2c1nnn2C (centres unmarked) [Example 78, 6-(4-chlorophenyl)-5-(1,4-dimethyl-1H-benzo[d][1,2,3]triazol-6-yl)-1-isopropyl-2-(1-methyl-1,2,3,6-tetrahydropyridin-4-yl)-5,6-dihydropyrrolo[3,4-d]imidazol-4(1H)-one] | 28 nM | 48 nM | 31 nM | 4300 nM | 14.4 nM | 49.6 nM | 4.54 nM | 38.8 nM | >10000 nM | 9.58 nM |

Now from value to compound, other results behind:

| IC50 (BRD4 (His-Brd4(44-477))) | IC50 (BRD2 (His-Brd2(60-472))) | IC50 (BRD3 (His-Brd3(20-477))) | IC50 [1] | GI50 (THP-1 cells) | GI50 (K-562 cells) | GI50 (MV-4-11 cells) | Structure (SMILES) | THP-1 TGI (THP-1 cells) | K-562 TGI (K-562 cells) | MV-4-11 TGI (MV-4-11 cells) |
| --- | --- | --- | --- | --- | --- | --- | --- | --- | --- | --- |
| 19 nM | 34 nM | 18 nM | > 37000 nM | 11.3 nM | 44 nM | 9.19 nM | COc1ncc(-c2nc3c(n2C(C)C)C(c2ccc(Cl)cc2)N(c2cc(C)c4nnc(C(F)F)n4c2)C3=O)c(OC)n1 (centres unmarked) [Example 143, 6-(4-chlorophenyl)-5-(3-(difluoromethyl)-8-methyl-[1,2,4]triazolo[4,3-a]pyridin-6-yl)-2-(2,4-dimethoxypyrimidin-5-yl)-1-isopropyl-5,6-dihydropyrrolo[3,4-d]imidazol-4(1H)-one] | 30.65 nM | >10000 nM | 16.1 nM |
| 26 nM | 46 nM | 21.5 nM | 3400 nM | 7.92 nM | 29.6 nM | 5.58 nM | Cc1cc(N2C(=O)c3nc(C4=CCOCC4)n(C(C)C)c3C2c2ccc(Cl)cc2)cc2c1nnn2C (centres unmarked) [Example 79, 6-(4-chlorophenyl)-2-(3,6-dihydro-2H-pyran-4-yl)-5-(1,4-dimethyl-1H-benzo[d][1,2,3]triazol-6-yl)-1-isopropyl-5,6-dihydropyrrolo[3,4-d]imidazol-4(1H)-one] | 17.9 nM | >10000 nM | 11.1 nM |
| 166 nM | 274 nM | 164 nM | 4100 nM | 100 nM | 320 nM | 66.9 nM | CCCn1c(-c2cncc(C#N)c2)nc2c1C(=O)N(c1cc(C)c(=O)n(C)c1)C2c1ccc(Cl)cc1 (centres unmarked) [Example 37, 5-(4-(4-chlorophenyl)-5-(1,5-dimethyl-6-oxo-1,6-dihydropyridin-3-yl)-6-oxo-1-propyl-1,4,5,6-tetrahydropyrrolo[3,4-d]imidazol-2-yl)nicotinonitrile] | 195 nM | >10000 nM | 105 nM |
| 16 nM | 22 nM | 21 nM | > 37000 nM | 33.3 nM | 148 nM | 26.5 nM | COc1ccc(-c2nc3c(n2C(C)C)C(c2ccc(Cl)cc2)N(c2cc(C)c4nnc(C(F)F)n4n2)C3=O)cn1 (centres unmarked) [Example 149, 6-(4-chlorophenyl)-5-(3-(difluoromethyl)-8-methyl-[1,2,4]triazolo[4,3-b]pyridazin-6-yl)-1-isopropyl-2-(6-methoxypyridin-3-yl)-5,6-dihydropyrrolo[3,4-d]imidazol-4(1H)-one] | 83.9 nM | >10000 nM | 43.5 nM |
